According to patent US20070149505A1, “Method of Inhibiting Adhesion Formation” (SmithKline Beecham Corporation, priority 2001, published 2007):
Where “and” joins values, the source holds several entries; their conditions need not be identical. Equal entries are not always repeated.

Test system: uterine horn adhesions
Assay: rabbit uterine horn model of adhesion formation, oral + local (gel) COMPOUND 1 study
Format: in vivo, New Zealand White rabbits
Set-up: key to tenacity of the adhesions score (in parentheses), Right Horn, Bowel / tenacity of the adhesions score (in parentheses), Right Horn, Itself / tenacity of the adhesions score (in parentheses), Left Horn, Itself / tenacity of the adhesions score (in parentheses), Right Horn, Left / tenacity of the adhesions score (in parentheses), Left Horn, Bowel / tenacity of the adhesions score (in parentheses), Left Horn, Right / tenacity of the adhesions score (in parentheses), Right Horn, Bladder / tenacity of the adhesions score (in parentheses), Left Horn, Bladder: 0=No Adhesions; 1=mild, easily dissectable adhesions; 2=moderate adhesions; non-dissectable, does not tear the organ; 3=dense adhesions; non-dissectable, tears organ when removed; key to Overall score: overall adhesion score; 1 = mild, 1.5+ slightly tougher/more extensive
Details: for Overall, (group summary): group value ± spread, overall scores analyzed by rank order analysis
Protocol: The compounds of the instant invention are tested in known models of adhesion formation. These test systems include a rabbit sidewall model of adhesion formation as described in Rogers, et al., J. Invest. Surg., 9:388-391 (1996) and Rodgers, et al., […], 69(3):403-408 (1998); a rat model for adhesion formation as described in Harris, et al., Surgery, 117:663-669 (1995); and a rabbit animal model used to examine laparoscopic adhesion prevention. The rabbit uterine horn model may also be used to test the use of the instant vitronectin inhibiting compounds as inhibitors of adhesion formation. The experimental details and results using this model are detailed below.
Animals: New Zealand White rabbits, 2.4-2.7 kg, were purchased and quarantined for at least 2 days prior to use. The rabbits were randomized into appropriate control and treatment groups (see experimental designs below). The rabbits were housed on a 12:12 light:dark cycle with food and water available ad libitum. Each treatment group in all studies contained 8-10 animals.
Adhesion Model: The animals that received COMPOUND 1 or vehicle according to the experimental design (below). The rabbits that received placebo at surgery received two doses of vehicle orally. Rabbits were anesthetized with a mixture of 55 mg/kg ketamine hydrochloride and 5 mg/kg Rompum intramuscularly. Following preparation for sterile surgery, a midline laparotomy was performed. The uterine horns were exteriorized and traumatized by abrasion of the serosal surface with gauze until punctate bleeding developed. Ischemia of both uterine horns was induced by removal of the collateral blood supply. The remaining blood supply to the uterine horns was the ascending branches of the utero-vaginal arterial supply of the myometrium. The midline muscle and skin incision were closed.
After 7 or 14 days, the rabbits were terminated and adhesions were scored on a site and rabbit basis. Specifically, the percentage of the area of the horns adherent to various organs was determined. In addition, the tenacity of the adhesions was scored using the following system:
1=mild, easily dissectable adhesions
3=dense adhesions; non-dissectable, tears organ when removed
An overall score which took into account all of the above data was given to each rabbit. The following scoring system was used:
0.5+ Light, filmy pelvic adhesions involving only one organ, typically only 1 or 2 small adhesions
1.0+ Light, filmy adhesions, not extensive although slightly more extensive than 0.5
1.5+ Adhesions slightly tougher and more extensive than a 1 rating
2.0+ Tougher adhesions, a little more extensive, uterine horns usually have adhesions to both bowel and bladder
2.5+ Same as 2, except the adhesions are usually not filmy at any site and more extensive
3.0+ Tougher adhesions than 2, more extensive, both horns are attached to the bowel and bladder, some movement of the uterus possible
3.5+ Same as 3, but adhesions slightly more extensive and tougher
4.0+ Severe adhesions, both horns attached to the bowel and bladder, unable to move the uterus without tearing the adhesions
The rabbits were scored by two independent observers that were blinded to the prior treatment of the animal. If there was disagreement as to the score to be assigned to an individual animal, the higher score was given.
Statistical Analysis: The tenacity and overall scores were analyzed by rank order analysis and analysis of variance on the ranks. The percentage area of the horns involved to the various organs were compared by Student's t test.
[…] received two loading doses of 60 mg/kg COMPOUND 1 orally prior to surgery. At the end of the procedure, the animals received either nothing (surgical control), or 12 ml of placebo (10% CMC) or one of two doses (1 mg/ml or 0.1 mg/ml) of COMPOUND 1 at the site of surgical injury.
Oral+local study: Two loading doses of COMPOUND 1 (60 mg/kg, po) were administered orally prior to surgery. […]

[1] = 0.1 mg/ml COMPOUND 1, 2 Week Necropsy Time (Table 4), group mean ± spread
[2] = 0.1 mg/ml COMPOUND 1, 2 Week Necropsy Time (Table 4), individual rabbit
[3] = 0.1 mg/ml COMPOUND 1, 2 Week Necropsy Time (Table 4), individual rabbit, dash = site adhesion free
[4] = 0.1 mg/ml COMPOUND 1, 2 Week Necropsy Time (Table 8), group mean ± spread
[5] = 0.1 mg/ml COMPOUND 1, 2 Week Necropsy Time (Table 8), individual rabbit
[6] = 0.1 mg/ml COMPOUND 1, 2 Week Necropsy Time (Table 8), individual rabbit, dash = site adhesion free
[7] = 0.1 mg/ml COMPOUND 1, listed after Control/Placebo 1 Week

Structure (SMILES): O=C(O)C[C@@H]1Cc2ccc(OCCCNc3ccccn3)cc2CN(CC(F)(F)F)C1=O [COMPOUND 1, (S)-3-oxo-8-[3-(pyridin-2-ylamino)-1-propyloxy]-2-(2,2,2-trifluoroethyl)-2,3,4,5-tetrahydro-1H-2-benzazepine-4-acetic acid]
- % Horn Involved, Left Horn, Bladder [1]: 7.0 ± 5.0%
- % Horn Involved, Left Horn, Bowel [1]: 10.0 ± 4.2%
- % Horn Involved, Left Horn, Itself [1]: 22.0 ± 3.6%
- % Horn Involved, Left Horn, Right [1]: 21.0 ± 4.8%
- % Horn Involved, Right Horn, Bladder [1]: 9.0 ± 4.8%
- % Horn Involved, Right Horn, Bowel [1]: 10.0 ± 4.2%
- % Horn Involved, Right Horn, Itself [1]: 16.0 ± 5.0%
- % Horn Involved, Right Horn, Left [1]: 21.0 ± 4.8%
- Overall, (group summary) (0.1 mg/ml COMPOUND 1, 2 Week Necropsy Time (Table 4)): 30.2 ± 6.2
- Overall score [2]: 1.5 (3×) and 2.0 (2×) and 1.0 (2×) and 0.5 and 2.5 (2×)
- tenacity of the adhesions score (in parentheses), Left Horn, Bladder [2]: 1
- tenacity of the adhesions score (in parentheses), Left Horn, Bowel [2]: 1
- tenacity of the adhesions score (in parentheses), Left Horn, Itself [2]: 1 (7×) and 2 (2×)
- tenacity of the adhesions score (in parentheses), Left Horn, Right [2]: 1 (6×) and 2 (2×)
- tenacity of the adhesions score (in parentheses), Right Horn, Bladder [2]: 1
- tenacity of the adhesions score (in parentheses), Right Horn, Bowel [2]: 1
- tenacity of the adhesions score (in parentheses), Right Horn, Itself [2]: 1 (4×) and 2 (2×)
- tenacity of the adhesions score (in parentheses), Right Horn, Left [2]: 1 (6×) and 2 (2×)
- % Horn Involved, Left Horn, Bladder [3]: 10% (2×) and 50%
- % Horn Involved, Left Horn, Bowel [3]: 10% (2×) and 20% (2×) and 40%
- % Horn Involved, Left Horn, Itself [3]: 40% and 30% (3×) and 20% (4×) and 10%
- % Horn Involved, Left Horn, Right [3]: 30% (3×) and 40% (2×) and 20% and 10% (2×)
- % Horn Involved, Right Horn, Bladder [3]: 10% (4×) and 50%
- % Horn Involved, Right Horn, Bowel [3]: 10% (2×) and 20% (2×) and 40%
- % Horn Involved, Right Horn, Itself [3]: 40% and 30% (3×) and 10% and 20%
- % Horn Involved, Right Horn, Left [3]: 30% (3×) and 40% (2×) and 20% and 10% (2×)
- % Horn Involved, Left Horn, Bladder [4]: 7.0 ± 3.4%
- % Horn Involved, Left Horn, Bowel [4]: 15.0 ± 5.0%
- % Horn Involved, Left Horn, Itself [4]: 23.0 ± 5.6%
- % Horn Involved, Left Horn, Right [4]: 15.0 ± 4.8%
- % Horn Involved, Right Horn, Bladder [4]: 7.0 ± 3.4%
- % Horn Involved, Right Horn, Bowel [4]: 13.0 ± 4.7%
- % Horn Involved, Right Horn, Itself [4]: 11.0 ± 3.5%
- % Horn Involved, Right Horn, Left [4]: 15.0 ± 4.8%
- Overall, (group summary) (0.1 mg/ml COMPOUND 1, 2 Week Necropsy Time (Table 8)): 22.0 ± 4.8
- Overall score [5]: 2.0 (2×) and 1.5 (4×) and 1.0 (2×) and 0.5 (2×)
- tenacity of the adhesions score (in parentheses), Left Horn, Bladder [5]: 1
- tenacity of the adhesions score (in parentheses), Left Horn, Bowel [5]: 1
- tenacity of the adhesions score (in parentheses), Left Horn, Itself [5]: 1
- tenacity of the adhesions score (in parentheses), Left Horn, Right [5]: 1
- tenacity of the adhesions score (in parentheses), Right Horn, Bladder [5]: 1
- tenacity of the adhesions score (in parentheses), Right Horn, Bowel [5]: 1
- tenacity of the adhesions score (in parentheses), Right Horn, Itself [5]: 1
- tenacity of the adhesions score (in parentheses), Right Horn, Left [5]: 1
- % Horn Involved, Left Horn, Bladder [6]: 30% and 10% (2×) and 20%
- % Horn Involved, Left Horn, Bowel [6]: 40% and 30% (3×) and 10% (2×)
- % Horn Involved, Left Horn, Itself [6]: 30% (4×) and 50% and 20% and 40%
- % Horn Involved, Left Horn, Right [6]: 10% and 40% and 30% (2×) and 20% (2×)
- % Horn Involved, Right Horn, Bladder [6]: 30% and 10% (2×) and 20%
- % Horn Involved, Right Horn, Bowel [6]: 40% and 30% (2×) and 10% (3×)
- % Horn Involved, Right Horn, Itself [6]: 30% (2×) and 10% (5×)
- % Horn Involved, Right Horn, Left [6]: 10% and 40% and 30% (2×) and 20% (2×)
- # Sites Adhesion Free [7]: 34
- % Sites Adhesion Free [7]: 42.5%
- # Sites Adhesion Free (0.1 mg/ml COMPOUND 1, listed after Control/Placebo 2 Weeks): 31
